Results taken from PubChem BioAssay (NCI).
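Briefly, cells in 96-well plates were exposed to five compound concentrations for 48 h, and endpoints were estimated by linear interpolation. Definition used: TGI = concentration required for complete inhibition of growth.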

How the values were obtained:
Test in all cases: NCI-60 cell line screen, 48 h
RXF-631 renal = system: RXF-631 renal
XF 498 CNS = system: XF 498 CNS
DLD-1 colon = system: DLD-1 colon
KM20L2 colon = system: KM20L2 colon
LXFL 529 NSCLC = system: LXFL 529 NSCLC
M19-MEL melanoma = system: M19-MEL melanoma

SMILES | TGI (RXF-631 renal) | TGI (XF 498 CNS) | TGI (DLD-1 colon) | TGI (KM20L2 colon) | TGI (LXFL 529 NSCLC) | TGI (M19-MEL melanoma)
Cc1cc2c(=O)c3ccccc3[nH]c2c(C(N)=O)c1C | > 100 µM | > 100 µM | > 100 µM | > 100 µM | > 100 µM | > 100 µM
CCOC(=O)c1ccc(/C(C)=N/NC(N)=S)cc1 | > 100 µM | > 100 µM | > 100 µM | > 100 µM | > 100 µM | > 100 µM
O=C1CCC2(c3ccc(Cl)cc3)Nc3cc(Cl)ccc3N12 (centres undefined) | 28.9 µM | 15 µM | 20 µM | 28.9 µM | 24.6 µM | 25.5 µM
Cc1ccc2nc(/C(=C/c3ccc(/C=C(\NC(=O)c4ccccc4)c4nc5ccc(C)cc5[nH]4)c(C)c3)NC(=O)c3ccccc3)[nH]c2c1 | 91.3 µM | 36.5 µM | > 100 µM | 45.3 µM | 12.2 µM | 44.8 µM
COc1ccc(CCN(C)C2CCC(C#N)(c3ccc(OC)c(OC)c3)CC2)cc1OC (centres undefined) | > 100 µM | > 100 µM | > 100 µM | > 100 µM | > 100 µM | > 100 µM
CN(C)C(=S)/N=c1\sn(C)/c(=N\C(=S)N(C)C)n1C | > 100 µM | > 100 µM | > 100 µM | > 100 µM | > 100 µM | 69.7 µM
COC(=O)/C(=C/c1ccc(OC)cc1)C(C(=O)O)=C1CCCC1 | > 100 µM | > 100 µM | > 100 µM | > 100 µM | > 100 µM | > 100 µM
COC(=O)/C(=N\NC(N)=S)C(C(=O)OC)C(=O)C(=O)Nc1ccc(C)cc1 (centres undefined) | > 100 µM | > 100 µM | > 100 µM | > 100 µM | > 100 µM | > 100 µM
O=C1N=C2Sc3ccc4ccccc4c3N2C1=O | 51.9 µM | 41.3 µM | 95 µM | 64.4 µM | 37.7 µM | > 100 µM
